Assay results reported in patent US10611778B2, “Fused bicyclic inhibitors of menin-MLL interaction” (Janssen Pharmaceutica NV, priority 2016, dated 2020).
pIC50: −log10 of the molar value. Like-named read-outs stand apart in the source and are kept apart here.

Key:
[1] = molecular target: T1, Menin/MLL (terbium chelate-labeled menin, FITC-MBM1 peptide) (Homo sapiens, UniProt O00255, T541A); experiment: Menin/MLL homogenous time-resolved fluorescence (HTRF) assay; assay type: binding; conditions: for pIC50: averaged values over all measurements, read-out: Menin HTRF assay (IC50)
T1 construct: Menin (a.a. 1-610-6×his tag) was labeled with terbium cryptate as follows
T1 sequence (O00255 with tags, fused parts or gaps T541A): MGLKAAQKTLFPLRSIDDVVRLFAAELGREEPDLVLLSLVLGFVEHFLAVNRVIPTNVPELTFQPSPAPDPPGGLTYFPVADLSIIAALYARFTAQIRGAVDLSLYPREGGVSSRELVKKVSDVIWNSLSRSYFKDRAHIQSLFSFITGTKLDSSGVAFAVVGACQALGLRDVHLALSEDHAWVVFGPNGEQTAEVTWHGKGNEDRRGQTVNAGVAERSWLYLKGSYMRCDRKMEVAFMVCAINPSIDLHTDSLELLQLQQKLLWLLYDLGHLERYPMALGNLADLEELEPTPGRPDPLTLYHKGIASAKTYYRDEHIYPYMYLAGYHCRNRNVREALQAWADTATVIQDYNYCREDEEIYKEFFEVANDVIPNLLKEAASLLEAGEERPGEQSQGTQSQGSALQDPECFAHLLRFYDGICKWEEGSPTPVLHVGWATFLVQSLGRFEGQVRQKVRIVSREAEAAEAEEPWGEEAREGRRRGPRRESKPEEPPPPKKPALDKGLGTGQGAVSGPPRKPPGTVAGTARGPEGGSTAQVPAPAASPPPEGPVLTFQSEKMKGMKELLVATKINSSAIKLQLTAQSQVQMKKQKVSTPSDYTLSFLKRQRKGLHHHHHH
Method: 3) Menin/MLL Homogenous Time-Resolved Fluorescence (HTRF) Assay
To an untreated, white 384-well microtiter plate was added 40 nL 200× test compound in DMSO and 4 μL 2× terbium chelate-labeled menin (vide infra for preparation) in assay buffer (40 mM Tris-HCl, pH 7.5, 50 mM NaCl, 1 mM DTT and 0.05% Pluronic F-127). After incubation of test compound and terbium chelate-labeled menin for 5 min at ambient temperature, 4 μL 2×FITC-MBM1 peptide (FITC-β-alanine-SARWRFPARPGT-NH2) in assay buffer was added, the microtiter plate centrifuged at 1000 rpm for 1 min and the assay mixtures incubated for 15 min at ambient temperature. The relative amount of menin⋅FITC-MBM1 complex present in an assay mixture is determined by measuring the homogenous time-resolved fluorescence (HTRF) of the terbium/FITC donor/acceptor fluorophore pair using a BMG Pherastar plate reader (ex. 337 nm/terbium em. 490 nm/FITC em. 520 nm) at ambient temperature. The degree of fluorescence resonance energy transfer (the HTRF value) is expressed as the ratio of the fluorescence emission intensities of the FITC and terbium fluorophores (F^em 520 nm/F^em 490 nm). The final concentrations of reagents in the binding assay are 100 pM terbium chelate-labeled menin, 75 nM FITC-MBM1 peptide and 0.5% DMSO in assay buffer. Dose-response titrations of test compounds are conducted using an 11 point, three-fold serial dilution scheme, starting at 31 μM.
Compound potencies were determined by first calculating % inhibition at each compound concentration according to equation 1: % inhibition=((HC−LC)−(HTRF^compound−LC))/(HC−LC))*100 (Eqn 1)
Where LC and HC are the HTRF values of the assay in the presence or absence of a saturating concentration of a compound that competes with FITC-MBM1 for binding to menin, and HTRF^compound is the measured HTRF value in the presence of the test compound. HC and LC HTRF values represent an average of at least 16 replicates per plate.
Where Bottom and Top are the lower and upper asymptotes of the dose-response curve, respectively, IC50 is the concentration of compound that yields 50% inhibition of signal and h is the Hill coefficient.
Preparation of Terbium cryptate labeling of Menin: Menin (a.a. 1-610-6×his tag) was labeled with terbium cryptate as follows. 2 mg of Menin was buffer exchanged into 1× phosphate buffered saline. 16 uM Menin was incubated with 4-fold molar excess NHS-terbium cryptate (Cisbio Bioassays, Bedford, Mass.) for 2 hours at room temperature. The labeled protein was purified away from free label by running the reaction over a Superdex 200 Increase 10/300 GL column at 0.75 ml/min. Peak fractions were collected, aliquoted and frozen at −80° C.

MV-4-11 = experiment: Proliferation assay (spheroid assay) MV-4-11; assay type: cell-based, human; conditions: Homo sapiens, MV4-11, MV-4-11; averaged values over all measurements; read-out: Spheroid assay MV-4-11 (IC50)
Method: The anti-proliferative effect of menin/MLL protein/protein interaction inhibitor test compounds was assessed in human leukemia cell lines. The cell lines MV-4-11 and MOLM14 harbor MLL translocations and express the MLL fusion proteins MLL-AF4 and MLL-AF9, respectively, as well as the wildtype protein from the second allele. […] K562 and KG1 were used as a control cell lines containing two MLL wildtype alleles in order to exclude compounds that display general cytotoxic effects.
MV-4-11 and MOLM14 were cultured in RPMI-1640 (Sigma Aldrich) supplemented with 10% fetal bovine serum (HyClone), 2 mM L-glutamine (Sigma Aldrich) and 50 μg/ml gentamycin (Gibco). K562 were propagated in RPMI-1640 (Sigma Aldrich) supplemented with 20% fetal bovine serum (HyClone), 2 mM L-glutamine (Sigma Aldrich) and 50 μg/ml gentamycin (Gibco). KG1 were cultured in Iscove's MDM (Gibco) supplemented with 20% fetal bovine serum (HyClone), 2 mM L-glutamine (Sigma Aldrich) and 50 μg/ml gentamycin (Gibco).
In order to assess the anti-proliferative effects, 1,500 MV-4-11, 300 MOLM14, 750 K562 or 1,300 KG1 cells were seeded in 200 μl media per well in 96-well round bottom, ultra-low attachment plates (Costar, catalogue number 7007). Cell seeding numbers were chosen based on growth curves to ensure linear growth throughout the experiment. Test compounds were added at different concentrations and the DMSO content was normalized to 0.3%. Cells were incubated for 8 d at 37° C. and 5% CO2. Spheroid like growth was monitored in real-time by live-cell imaging (IncuCyteZOOM, Essenbio, 4× objective) acquiring one image every four hours for 8 d. Confluence (%) as a measure of spheroid size was determined using an integrated analysis tool.
In order to determine the cumulative effect of the test compounds over time, the area under the curve (AUC) in a plot of confluence against time was calculated. Confluence at the beginning of the experiment (t=0) was used as baseline for the AUC calculation.
Absolute IC50 values were calculated according to the following procedure: % Control=(AUC sample/AUC control)*100
AUC control=mean AUC of control values (cells without compound/DMSO as vehicle control)
A non-linear curve fit was applied using the least squares (ordinary) fit method to the plot of % control versus compound concentration. Based on this, the absolute IC50 value (half maximal inhibitory concentration of the test compound causing an anti-proliferative effect of 50% relative to the vehicle control) was calculated.

| pIC50 [1] | pIC50 (MV-4-11) | IC50 ([1]; individual measurements (not averaged), read-out: (3) Menin HTRF assay (IC50 (nM))) | Structure (SMILES) |
| --- | --- | --- | --- |
| 5.08 | – | – | Cn1cc(CN2C(=O)C[C@H]3CCN(c4ncnc5sc(CC(F)(F)F)cc45)C[C@H]32)cn1 (single isomer, unassigned) [Compound 35A] |
| < 4.60 | – | – | Cn1cc(CN2C(=O)C[C@@H]3CCN(c4ncnc5sc(CC(F)(F)F)cc45)C[C@@H]32)cn1 (single isomer, unassigned) [Compound 35B] |
| 6.68 | 5.64 | – | Fc1cncc(CN2CC[C@@H]3CN(c4ncnc5sc(CC(F)(F)F)cc45)C[C@@H]3C2)c1 (single isomer, unassigned) [Compound 38] |
| 7.01 | 5.89 | – | FC(F)(F)Cc1cc2c(N3C[C@H]4CCN(Cc5cncc(Cl)c5)C[C@H]4C3)ncnc2s1 (single isomer, unassigned) [Compound 43] |
| 6.35 | – | – | FC(F)(F)Cc1cc2c(N3C[C@H]4CCN(CCc5ccccc5)C[C@H]4C3)ncnc2s1 (single isomer, unassigned) [Compound 48] |
| 6.55 | – | – | FC(F)(F)Cc1cc2c(N3C[C@H]4CCN(Cc5ccncn5)C[C@H]4C3)ncnc2s1 (single isomer, unassigned) [Compound 50] |
| 6.60 | – | – | FC(F)(F)Cc1cc2c(N3C[C@H]4CCN(Cc5cnccn5)C[C@H]4C3)ncnc2s1 (single isomer, unassigned) [Compound 53] |
| 6.31 | – | – | O=c1cc(CN2CC[C@@H]3CN(c4ncnc5sc(CC(F)(F)F)cc45)C[C@@H]3C2)cc[nH]1 (single isomer, unassigned) [Compound 66] |
| 6.01 | – | – | Cn1cc(CN2CC[C@@H]3CN(c4ncnc5sc(CC(F)(F)F)cc45)C[C@@H]3C2)cn1 (single isomer, unassigned) [Compound 71A] |
| 6.00 | – | – | FC(F)(F)Cc1cc2c(N3C[C@H]4CN(Cc5cccnc5)CC[C@H]4C3)ncnc2s1 (single isomer, unassigned) [Compound 72] |
| 5.61 | – | – | FC(F)(F)Cc1cc2c(N3C[C@H]4CCN(CC(F)(F)F)C[C@H]4C3)ncnc2s1 (single isomer, unassigned) [Compound 73] |
| 5.65 | – | – | FC(F)CN1CC[C@@H]2CN(c3ncnc4sc(CC(F)(F)F)cc34)C[C@@H]2C1 (single isomer, unassigned) [Compound 74] |
| 6.70 | – | – | CC(C)[C@H](c1cnn(C)c1)N1CC[C@@H]2CN(c3ncnc4sc(CC(F)(F)F)cc34)C[C@@H]2C1 (single isomer, unassigned) [Compound 77A] |
| 5.79 | – | – | CC(C)[C@@H](c1cnn(C)c1)N1CC[C@@H]2CN(c3ncnc4sc(CC(F)(F)F)cc34)C[C@@H]2C1 (single isomer, unassigned) [Compound 77B] |
| 6.28 | – | – | CC(C)[C@H](c1cnn(C)c1)N1CC[C@H]2CN(c3ncnc4sc(CC(F)(F)F)cc34)C[C@H]2C1 (single isomer, unassigned) [Compound 78A] |
| 5.88 | – | – | CC(C)[C@@H](c1cnn(C)c1)N1CC[C@H]2CN(c3ncnc4sc(CC(F)(F)F)cc34)C[C@H]2C1 (single isomer, unassigned) [Compound 78B] |
| 6.02 | – | – | C[C@H](c1cnn(C)c1)N1CC[C@@H]2CN(c3ncnc4sc(CC(F)(F)F)cc34)C[C@@H]2C1 (single isomer, unassigned) [Compound 79A] |
| 6.02 | – | – | C[C@@H](c1cnn(C)c1)N1CC[C@@H]2CN(c3ncnc4sc(CC(F)(F)F)cc34)C[C@@H]2C1 (single isomer, unassigned) [Compound 79B] |
| 7.70 | – | – | Cn1cc(CN2CC[C@@H]3CN(c4ncnc5sc(CC(F)(F)F)cc45)C[C@@H]3C2)cn1 (single isomer, unassigned) [Compound 87] |
| 6.57 | – | – | COc1ncc(CN2CC[C@@H]3CN(c4ncnc5sc(CC(F)(F)F)cc45)C[C@@H]3C2)cn1 (single isomer, unassigned) [Compound 88] |
| 6.50 | – | – | Cc1ncc(CN2CC[C@@H]3CN(c4ncnc5sc(CC(F)(F)F)cc45)C[C@@H]3C2)cn1 (single isomer, unassigned) [Compound 90] |
| 6.30 | – | – | FC(F)(F)Cc1cc2c(N3C[C@H]4CCN(CC5(F)CCOCC5)C[C@H]4C3)ncnc2s1 (single isomer, unassigned) [Compound 98] |
| 6.43 | – | – | FC(F)(F)Cc1cc2c(N3C[C@H]4CCN(Cc5cncnc5)C[C@H]4C3)ncnc2s1 (single isomer, unassigned) [Compound 104] |
| 6.15 | – | – | CC(C)(C)OC(=O)N1CCC(O)(CN2CC[C@@H]3CN(c4ncnc5sc(CC(F)(F)F)cc45)C[C@@H]3C2)CC1 (single isomer, unassigned) [Compound 109] |
| – | – | 244 nM | OCCn1cc(CN2CCC3CN(c4ncnc5sc(CC(F)(F)F)cc45)CCC32)cn1 (centres unmarked) [Compound 24] |
| 6.26 | – | – | CC(C)CN1CCC2CN(c3ncnc4sc(CC(F)(F)F)cc34)CCC21 (centres unmarked) [Compound 25] |
| 5.34 | – | – | Cn1cc(CN2CC[C@@H]3CN(c4ncnc5sc(CC(F)(F)F)cc45)C[C@@H]32)cn1 [Compound 27C] |
| ~5.16 | – | – | Cn1cc(CN2CC[C@H]3CN(c4ncnc5sc(CC(F)(F)F)cc45)C[C@H]32)cn1 [Compound 27D] |
| 6.03 | – | – | O=C([C@@H]1CCCN1)N1CC[C@@H]2CN(c3ncnc4sc(CC(F)(F)F)cc34)C[C@@H]2C1 [Compound 80] |
| 6.01 | – | – | O=C([C@@H]1CCCN1)N1CC[C@H]2CN(c3ncnc4sc(CC(F)(F)F)cc34)C[C@H]2C1 [Compound 83] |
